# Source: patent US10542754B2, “Synergistic effect of spinetoram and methoxyfenozide for control of stem borer on rice” (Dow AgroSciences LLC, priority 2014, dated 2020)
# Tested on: striped stem borer (SSB)
# Test: Laboratory bioassay, rice stem dipping method, against striped stem borer on rice
# Conditions: for Numbers of Dead SSB: four replicates
# Description: Cotoxicity Coefficient (CTC) value was used to determine an existence of synergic effect between spinetoram and methoxyfenozide in the formulated pesticidal composition.
# The CTC value of the formulated composition was used to determine the biological responses to the treatment: additive, synergism, or antagonism. The CTC value of more than 120 indicates a synergistic effect between the combined pesticidal compounds. The CTC value of about 80 to 120 indicates an additive effect between the combined pesticidal compounds. The CTC value of less than 80 indicates antagonistic effect between the combined pesticidal compounds
# Pesticidal compositions were prepared by thoroughly mixing spinetoram and methoxyfenozide at various weight ratios as shown in TABLE 3.
# The effectiveness of the pesticidal compositions for controlling of striped stem borer on rice was determined using laboratory bioassays, and compared to those of three controls. In the first control, only spinetoram was used for the treatment. In the second control, only methoxyfenozide was used for the treatment. In the third control, no pesticide was used.
# The rice stem dipping method based on Standard Method for Bioassay Test (Chinese Standard Method NY/T1154.4-2006: Continuous Immersion Test for Insecticide Systemic Activity) was used to conduct the laboratory bioassays.
# Five stems of rice were dipped into the solutions of pestidical compositions for 10 seconds and then taken out for drying in the air. The treated stems were placed into glass tubes. Treatment with water, solvent, and emulsifier alone was used as reference check. There were four replicates for each treatment. About 10±1 larvae of third-instar striped stem borer were placed into each glass tube. The openings of the tubes were covered with gauze. Laboratory bioassays were conducted at room temperature. The number of dead larvae was recorded at 72 hours following the treatment.
# [1] = Chilo suppressalis, in Oryza sativa, 72 h
compound,measurement,setting,value
"COc1cccc(C(=O)NN(C(=O)c2cc(C)cc(C)c2)C(C)(C)C)c1C [Methoxyfenozide, methoxyfenozide]",LC50,[1],21.1 µg/mL
same,mortality at 2.5 µg/mL,[1],4.77%
same,mortality at 5 µg/mL,[1],13.6%
same,mortality at 10 µg/mL,[1],28.4%
same,mortality at 20 µg/mL,[1],43.9%
same,mortality at 40 µg/mL,[1],67.5%
same,mortality at 80 µg/mL,[1],87.5%
same,Numbers of Dead SSB,"mass concentration 2.5 mg/L, 72 hours",0.5
same,Numbers of Dead SSB,"mass concentration 5 mg/L, 72 hours",1.5
same,Numbers of Dead SSB,"mass concentration 10 mg/L, 72 hours",3
same,Numbers of Dead SSB,"mass concentration 20 mg/L, 72 hours",7
same,Numbers of Dead SSB,"mass concentration 40 mg/L, 72 hours",6.75
same,Numbers of Dead SSB,"mass concentration 80 mg/L, 72 hours",8.75
same,LC90,"third-instar larvae, 72 hours",107.74 µg/mL
spinetoram,Numbers of Dead SSB,"mass concentration 0.125 mg/L, 72 hours",0.5
same,Mortality (%),"mass concentration 0.125 mg/L, third-instar larvae, 72 hours",4.55%
same,Numbers of Dead SSB,"mass concentration 0.25 mg/L, 72 hours",2
same,Mortality (%),"mass concentration 0.25 mg/L, third-instar larvae, 72 hours",18.41%
same,Numbers of Dead SSB,"mass concentration 0.5 mg/L, 72 hours",4
same,Mortality (%),"mass concentration 0.5 mg/L, third-instar larvae, 72 hours",37.73%
same,Numbers of Dead SSB,"mass concentration 1 mg/L, 72 hours",6.75
same,Mortality (%),"mass concentration 1 mg/L, third-instar larvae, 72 hours",64.09%
same,Numbers of Dead SSB,"mass concentration 2 mg/L, 72 hours",8.5
same,Mortality (%),"mass concentration 2 mg/L, third-instar larvae, 72 hours",81.14%
same,Numbers of Dead SSB,"mass concentration 4 mg/L, 72 hours",9.75
same,Mortality (%),"mass concentration 4 mg/L, third-instar larvae, 72 hours",95.23%
same,LC50,"third-instar larvae, 72 hours",0.71 µg/mL
same,LC90,"third-instar larvae, 72 hours",2.76 µg/mL
